Assay results reported in patent publication US11014934B2, “Antiseptic drug” (AO “TATKHIMFARMPREPARATY”, priority 2017, dated 2021).
Like-named read-outs stand apart in the source and are kept apart here.

Experiments:
Experiment in all cases: MIC, serial dilutions in Müller-Hinton broth
Format in all cases: cell-based
Moraxella sp.829 = tested on: Moraxella sp.829
Experimental: (§1) A comparative assessment of the spectrum of antibacterial action was carried out on archival and clinical strains of gram-positive and gram-negative microorganisms in accordance with the [Opredeleniye chuvstvitel'nosti mikroorganizmov k antibakterial'nym preparatam (Metodicheskiye ukazaniya MUK 4.2.1890-04). Utverzhdeny i vvedeny v deystviye Glavnym gosudarstvennym sanitarnym vrachom Rossiyskoy Federatsii G. G. Onishchenko 04.03.2004 g. Determination of the sensitivity of microorganisms to antibacterial drugs (Guidelines MUK 4.2.1890-04). Approved and put into effect by the Chief State Sanitary Doctor of the Russian Federation G. G. Onishchenko on 4 Mar. 2004].
(§2) The value of the minimum inhibitory concentration (MIC) was determined by the method of serial dilutions on Müller-Hinton broth using 96-well sterile plates. Two-fold dilutions of the test substances in a nutrient medium were prepared. The final concentrations were 1-128 ug/ml. The growth of cultures was assessed visually, comparing the growth of microorganisms in the presence of test compounds with the growth of culture without them. […] The first lowest concentration of the studied substance (from a series of consecutive dilutions), where bacterial growth is not visually determined, is considered to be the minimum inhibitory concentration (MIC). MIC was determined by the method of serial dilutions in broth with increment=2, so the differences of neighboring dilutions are not considered to be significant. In each experience there is a positive (broth with growing culture) and a negative (broth without growing culture) control.
(§3) To determine the MIC, 10 μl of culture medium was taken from those wells in which growth was not observed, and inoculation was performed on a dense Müller-Hinton broth. For the preparation of the inoculum, a pure, daily culture of gram-positive and gram-negative microorganisms grown on a dense nutrient medium was used. Nutrient medium is Müller-Hinton broth, which was prepared from dry media (Müller-Hinton broth, Acumedia, Baltimore), cultivation was carried out on agarized Müller-Hinton broth, including an additional 2% agar. The media were autoclaved at 121° C. for 15 minutes. In a sterile isotonic solution of sodium chloride, a suspension of microorganisms was prepared, adjusting the inoculum density to 0.5 according to the McFarland standard (1.5·10^8 CFU/ml). Then, the resulting inoculum was diluted to a concentration of 10^7 CFU/ml with Müller-Hinton broth. The inoculum was used within 15 minutes after preparation; the purity of the bacterial strains was monitored before each experiment.
(§4) 100 μl of Müller-Hinton broth was added to the wells of each plate; The tested substance was introduced into the first well at a concentration of 128 μg/ml in a volume of 100 μl and its concentration was adjusted to 0.5 μg/ml by consecutive two-fold dilution. Then, the prepared inoculum (100 μI) was added to each well, thereby diluting twice the concentration of the studied compounds. […] In addition, the purity of nutrient media and solvents was monitored. The plates were incubated in a thermostat at 37° C. for 24 hours. The growth of cultures was assessed visually, comparing the growth of microorganisms in the presence of test compounds with the growth of culture without them.
(§5) For the MIC was taken the minimum concentration of the studied compounds, providing complete suppression of the visible growth of the studied strains of microorganisms. The maximum value obtained in three independent experiments was taken as the MIC of the compound.

S. aureus 18 = tested on: S. aureus 18
Experimental: as §1, §2, §3, §4, §5

S. epidermidis 15990 = tested on: S. epidermidis 15990
Experimental: as §1, §2, §3, §4, §5

E. faecium 25 = tested on: E. faecium 25
Experimental: as §1, §2, §3, §4, §5

Moraxella sp. 723 = tested on: Moraxella sp. 723
Experimental: as §1, §2, §3, §4, §5

A. baumannii 1425 PR = tested on: A. baumannii 1425 PR
Experimental: as §1, §2, §3, §4, §5

Klebsiella spp. 11 = tested on: Klebsiella spp. 11
Experimental: as §1, §2, §3, §4, §5

S. aureus 1168 MRSA = tested on: S. aureus 1168 MRSA
Experimental: as §1, §2, §3, §4, §5

Klebsiella spp. 10 = tested on: Klebsiella spp. 10
Experimental: as §1, §2, §3, §4, §5

E.coli ATCC 25922 = tested on: E.coli ATCC 25922
Experimental: as §1, §2, §3, §4, §5

S. aureus 19 = tested on: S. aureus 19
Experimental: as §1, §2, §3, §4, §5

E. faecium 3062 = tested on: E. faecium 3062
Experimental: as §1, §2, §3, §4, §5

Proteus spp. 17 = tested on: Proteus spp. 17
Experimental: as §1, §2, §3, §4, §5

Acinetobacter spp. 4 = tested on: Acinetobacter spp. 4
Experimental: as §1, §2, §3, §4, §5

E. coli CDCF-50 = tested on: E. coli CDCF-50
Experimental: as §1, §2, §3, §4, §5

B. subtilis 168 = tested on: B. subtilis 168
Experimental: as §1, §2, §3, §4, §5

Stenotrophomonas spp. 9 = tested on: Stenotrophomonas spp. 9
Experimental: as §1, §2, §3, §4, §5

Ps. aeruginosa 1945 PR = tested on: Ps. aeruginosa 1945 PR
Experimental: as §1, §2, §3, §4, §5

S. aureus 981 MRSA = tested on: S. aureus 981 MRSA
Experimental: as §1, §2, §3, §4, §5

S. aureus 21 = tested on: S. aureus 21
Experimental: as §1, §2, §3, §4, §5

E. coli 13 = tested on: E. coli 13
Experimental: as §1, §2, §3, §4, §5

E. faecalis 26 = tested on: E. faecalis 26
Experimental: as §1, §2, §3, §4, §5

CCCCCCCCCCCCCC(=O)NCCC[N+](C)(C)Cc1ccccc1.O.[Cl-] [Miramistin, benzyldimethyl [3-(myristoylamino)propyl]-ammonium chloride monohydrate]
MIC (Moraxella sp.829; Moraxella, SP.829): 32 µg/mL
MIC (S. aureus 18; Staphylococcus aureus, 18): 16 µg/mL
MIC (S. epidermidis 15990; Staphylococcus epidermidis, 15990): 8 µg/mL
MIC (E. faecium 25; Enterococcus faecium, 25): < 0.5 µg/mL
MIC (Moraxella sp. 723; Moraxella, SP.723): 32 µg/mL
MIC (A. baumannii 1425 PR; Acinetobacter baumannii, 1425PR): 64 µg/mL
MIC (Klebsiella spp. 11; Klebsiella, SPP.11): 64 µg/mL
MIC (S. aureus 1168 MRSA; Staphylococcus aureus, MRSA): 8 µg/mL
MIC (Klebsiella spp. 10; Klebsiella, SPP.10): 64 µg/mL
MIC (E.coli ATCC 25922; Escherichia coli, ATCC25922): 4 µg/mL
MIC (S. aureus 19; Staphylococcus aureus, 19): 16 µg/mL
MIC (E. faecium 3062; Enterococcus faecium, 3062): 0.5 µg/mL
MIC (Proteus spp. 17): > 64 µg/mL
MIC (Acinetobacter spp. 4; Acinetobacter, SPP.4): > 64 µg/mL
MIC (E. coli CDCF-50; Escherichia coli, CDCF50): 64 µg/mL
MIC (B. subtilis 168; Bacillus subtilis, 168): 2 µg/mL
MIC (Stenotrophomonas spp. 9; Stenotrophomonas, SPP.9): 64 µg/mL
MIC (Ps. aeruginosa 1945 PR; Pseudomonas aeruginosa, 1945PR): > 64 µg/mL
MIC (S. aureus 981 MRSA; Staphylococcus aureus, MRSA): 4 µg/mL
MIC (S. aureus 21; Staphylococcus aureus, 21): 16 µg/mL
MIC (E. coli 13; Escherichia coli, 13): 32 µg/mL
MIC (E. faecalis 26; Enterococcus faecalis, 26): 4 µg/mL

CCCCCCCCCCCC[N+](C)(C)Cc1cnc(C[N+](C)(C)CCCCCCCCCCCC)c2c1COC(CC)O2 (stereo not drawn) [Compound I, 5,8-(Bis(methylene (N, N-dimethyl-N-dodecylammonium))-2-ethyl-4H-[1,3]dioxino [4,5-c]pyridiniumdichloride]
MIC (Moraxella sp.829; Moraxella sp.829, inoculum 10^7 CFU/ml, read-out: MIC): 4 µg/mL
MIC (S. aureus 18; Staphylococcus aureus, S. aureus 18, inoculum 10^7 CFU/ml, read-out: MIC): 4 µg/mL
MIC (S. epidermidis 15990; Staphylococcus epidermidis, S. epidermidis 15990, inoculum 10^7 CFU/ml, read-out: MIC): 4 µg/mL
MIC (E. faecium 25; Enterococcus faecium, E. faecium 25, inoculum 10^7 CFU/ml, read-out: MIC): 0.03 µg/mL
MIC (Moraxella sp. 723; Moraxella sp. 723, inoculum 10^7 CFU/ml, read-out: MIC): 4 µg/mL
MIC (A. baumannii 1425 PR; Acinetobacter baumannii, A. baumannii 1425 PR, inoculum 10^7 CFU/ml, read-out: MIC): 8 µg/mL
MIC (Klebsiella spp. 11; Klebsiella spp. 11, inoculum 10^7 CFU/ml, read-out: MIC): 16 µg/mL
MIC (S. aureus 1168 MRSA; Staphylococcus aureus, S. aureus 1168 MRSA, inoculum 10^7 CFU/ml, read-out: MIC): 1 µg/mL
MIC (Klebsiella spp. 10; Klebsiella spp. 10, inoculum 10^7 CFU/ml, read-out: MIC): 8 µg/mL
MIC (E.coli ATCC 25922; Escherichia coli, ATCC25922, E.coli ATCC 25922, inoculum 10^7 CFU/ml, read-out: MIC): 2 µg/mL
MIC (S. aureus 19; Staphylococcus aureus, S. aureus 19, inoculum 10^7 CFU/ml, read-out: MIC): 2 µg/mL
MIC (E. faecium 3062; Enterococcus faecium, E. faecium 3062, inoculum 10^7 CFU/ml, read-out: MIC): 0.5 µg/mL
MIC (Proteus spp. 17; Proteus spp. 17, inoculum 10^7 CFU/ml, read-out: MIC): 64 µg/mL
MIC (Acinetobacter spp. 4; Acinetobacter spp. 4, inoculum 10^7 CFU/ml, read-out: MIC): 8 µg/mL
MIC (E. coli CDCF-50; Escherichia coli, CDCF50, E. coli CDCF-50, inoculum 10^7 CFU/ml, read-out: MIC): 8 µg/mL
MIC (B. subtilis 168; Bacillus subtilis, B. subtilis 168, inoculum 10^7 CFU/ml, read-out: MIC): 2 µg/mL
MIC (Stenotrophomonas spp. 9; Stenotrophomonas spp. 9, inoculum 10^7 CFU/ml, read-out: MIC): 8 µg/mL
MIC (Ps. aeruginosa 1945 PR; Pseudomonas aeruginosa, Ps. aeruginosa 1945 PR, inoculum 10^7 CFU/ml, read-out: MIC): 64 µg/mL
MIC (S. aureus 981 MRSA; Staphylococcus aureus, S. aureus 981 MRSA, inoculum 10^7 CFU/ml, read-out: MIC): 4 µg/mL
MIC (S. aureus 21; Staphylococcus aureus, S. aureus 21, inoculum 10^7 CFU/ml, read-out: MIC): 1 µg/mL
MIC (E. coli 13; Escherichia coli, E. coli 13, inoculum 10^7 CFU/ml, read-out: MIC): 8 µg/mL
MIC (E. faecalis 26; Enterococcus faecalis, E. faecalis 26, inoculum 10^7 CFU/ml, read-out: MIC): 1 µg/mL

alkyldimethyl(phenylmethyl) ammonium chloride [Benzalconium chloride]
MIC (Moraxella sp.829; Moraxella sp.829, inoculum 10^7 CFU/ml): 32 µg/mL
MIC (S. aureus 18; S. aureus 18, inoculum 10^7 CFU/ml): <0.5 µg/mL
MIC (S. epidermidis 15990; S. epidermidis 15990, inoculum 10^7 CFU/ml): 1 µg/mL
MIC (E. faecium 25; E. faecium 25, inoculum 10^7 CFU/ml): <0.5 µg/mL
MIC (Moraxella sp. 723; Moraxella sp. 723, inoculum 10^7 CFU/ml): 4 µg/mL
MIC (A. baumannii 1425 PR; A. baumannii 1425 PR, inoculum 10^7 CFU/ml): 32 µg/mL
MIC (Klebsiella spp. 11; Klebsiella spp. 11, inoculum 10^7 CFU/ml): 2 µg/mL
MIC (S. aureus 1168 MRSA; S. aureus 1168 MRSA, inoculum 10^7 CFU/ml): 2 µg/mL
MIC (Klebsiella spp. 10; Klebsiella spp. 10, inoculum 10^7 CFU/ml): 1 µg/mL
MIC (E.coli ATCC 25922; E.coli ATCC 25922, inoculum 10^7 CFU/ml): 1 µg/mL
MIC (S. aureus 19; S. aureus 19, inoculum 10^7 CFU/ml): <0.5 µg/mL
MIC (E. faecium 3062; E. faecium 3062, inoculum 10^7 CFU/ml): 1 µg/mL
MIC (Proteus spp. 17; Proteus spp. 17, inoculum 10^7 CFU/ml): 16 µg/mL
MIC (Acinetobacter spp. 4; Acinetobacter spp. 4, inoculum 10^7 CFU/ml): 4 µg/mL
MIC (E. coli CDCF-50; E. coli CDCF-50, inoculum 10^7 CFU/ml): 4 µg/mL
MIC (B. subtilis 168; B. subtilis 168, inoculum 10^7 CFU/ml): 0.5 µg/mL
MIC (Stenotrophomonas spp. 9; Stenotrophomonas spp. 9, inoculum 10^7 CFU/ml): 4 µg/mL
MIC (Ps. aeruginosa 1945 PR; Ps. aeruginosa 1945 PR, inoculum 10^7 CFU/ml): >64 µg/mL
MIC (S. aureus 981 MRSA; S. aureus 981 MRSA, inoculum 10^7 CFU/ml): 4 µg/mL
MIC (S. aureus 21; S. aureus 21, inoculum 10^7 CFU/ml): <0.5 µg/mL
MIC (E. coli 13; E. coli 13, inoculum 10^7 CFU/ml): 2 µg/mL
MIC (E. faecalis 26; E. faecalis 26, inoculum 10^7 CFU/ml): 0.5 µg/mL
